The target of experiment [1] is T1, Peroxisome proliferator-activated receptor alpha (Homo sapiens) (UniProt Q07869).
T1 sequence (whole entry): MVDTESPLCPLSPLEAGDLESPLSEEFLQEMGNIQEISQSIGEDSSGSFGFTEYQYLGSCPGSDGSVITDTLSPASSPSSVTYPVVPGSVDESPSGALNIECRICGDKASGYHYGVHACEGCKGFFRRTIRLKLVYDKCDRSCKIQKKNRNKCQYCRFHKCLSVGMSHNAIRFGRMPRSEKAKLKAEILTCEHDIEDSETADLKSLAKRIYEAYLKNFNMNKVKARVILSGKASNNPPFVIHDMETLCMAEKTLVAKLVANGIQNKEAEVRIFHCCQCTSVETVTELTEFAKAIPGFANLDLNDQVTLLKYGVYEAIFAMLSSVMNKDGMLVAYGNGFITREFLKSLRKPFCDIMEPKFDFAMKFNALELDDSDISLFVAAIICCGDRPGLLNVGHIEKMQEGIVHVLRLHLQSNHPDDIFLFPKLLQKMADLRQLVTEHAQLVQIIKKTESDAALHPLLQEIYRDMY
The experiment can be described thus: Agonist activity at human PPARalpha expressed in CHO cells co-transfected with pGL3-PPRE3-TK-luc assessed as transactivation at 20 ug/ml after 24 hrs by firefly luciferase reporter gene assay. It is filed as functional, cell-based.

Experiment [2] addresses T2, Peroxisome proliferator-activated receptor delta (Homo sapiens) (UniProt Q03181).
T2 sequence (whole entry): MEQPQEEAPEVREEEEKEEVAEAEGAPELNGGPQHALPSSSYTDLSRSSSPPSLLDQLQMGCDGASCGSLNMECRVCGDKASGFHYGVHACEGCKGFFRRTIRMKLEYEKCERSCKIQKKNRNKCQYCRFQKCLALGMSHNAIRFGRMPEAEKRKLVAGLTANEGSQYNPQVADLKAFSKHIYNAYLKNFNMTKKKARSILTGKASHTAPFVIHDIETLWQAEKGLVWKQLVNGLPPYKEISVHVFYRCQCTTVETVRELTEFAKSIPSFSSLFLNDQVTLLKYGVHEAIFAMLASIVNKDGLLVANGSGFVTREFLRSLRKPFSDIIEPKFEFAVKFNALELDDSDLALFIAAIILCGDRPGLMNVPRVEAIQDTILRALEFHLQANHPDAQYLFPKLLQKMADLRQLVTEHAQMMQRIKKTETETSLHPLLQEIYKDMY
In words: Agonist activity at human PPARdelta expressed in CHO cells co-transfected with pGL3-PPRE3-TK-luc assessed as transactivation at 20 ug/ml after 24 hrs by firefly luciferase reporter gene assay. It counts as functional, cell-based. A general note: In a reporter assay the amount or activity of a reporter protein is the signal.

Experiment [3] addresses T3, Peroxisome proliferator-activated receptor gamma (Homo sapiens, UniProt P37231).
T3 sequence (P37231 whole entry): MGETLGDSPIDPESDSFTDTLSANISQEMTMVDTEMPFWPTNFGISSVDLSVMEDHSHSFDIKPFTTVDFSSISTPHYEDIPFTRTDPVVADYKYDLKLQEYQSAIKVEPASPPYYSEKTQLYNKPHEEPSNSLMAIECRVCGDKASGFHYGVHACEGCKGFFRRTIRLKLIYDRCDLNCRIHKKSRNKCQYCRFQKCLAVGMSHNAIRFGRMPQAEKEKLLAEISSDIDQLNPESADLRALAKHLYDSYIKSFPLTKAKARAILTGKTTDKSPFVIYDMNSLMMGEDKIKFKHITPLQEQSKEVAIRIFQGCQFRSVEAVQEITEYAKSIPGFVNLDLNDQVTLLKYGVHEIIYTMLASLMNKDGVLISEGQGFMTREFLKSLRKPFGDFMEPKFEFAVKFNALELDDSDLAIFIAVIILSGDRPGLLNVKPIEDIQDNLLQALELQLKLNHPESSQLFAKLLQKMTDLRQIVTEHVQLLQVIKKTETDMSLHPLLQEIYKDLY
The experiment can be described thus: Agonist activity at human PPARgamma expressed in CHO cells co-transfected with pGL3-PPRE3-TK-luc assessed as transactivation after 24 hrs by firefly luciferase reporter gene assay. It counts as functional, cell-based.

Experiment [4] concerns HepG2. The experiment can be described thus: Upregulation of PPARgamma in human HepG2 cells by real-time PCR method. It is filed as functional, cell-based. For orientation: Quantitative PCR measures a nucleic acid by following its amplification.
Experiment [5] has as its system HepG2. In words: Upregulation of PPARgamma in human HepG2 cells t 0.5 to 12.5 uM by real-time PCR method relative to control. It is filed as functional.
For experiment [6], the target named is T4, Peroxisome proliferator-activated receptor gamma (Homo sapiens) (UniProt P37231).
T4 sequence (whole entry): T3 sequence (P37231 whole entry)
In words: Agonist activity at PPARgamma in human HepG2 cells assessed as up-regulation of SCD-1 at 0.5 to 12.5 uM by real-time PCR method. It counts as functional, cell-based.

Structures are written as SMILES. Calls of active or inactive are those of the source. The rule behind the calls is not given here.

In the case of `CCC/C=C\C#C/C=C/C(=O)CCCCCCCC(=O)O`, the result in experiment [1], in experiment [2] and in experiment [6] was inactive. The EC50 in experiment [3] was determined as 1880 nM. Moreover, the Activity entry in the experiment with HepG2 [4] was “Dose-dependent effect”. The “fold change (FC)” value in the experiment with HepG2 [5] is listed as 2.43.
Take `CCC/C=C\C#C/C=C/C(O)CCCCCCCC(=O)O` (centres undefined): the result in experiment [1] and in experiment [2] was inactive. Further, the EC50 in experiment [3] is above 68400 nM.

As a reminder, the EC50 is the concentration at which the effect is half-maximal.
